The results in this text go back to patent EP4227307A1 (Genzyme Corporation, priority 2022, dated 2023).

pIC50: −log10 of the molar value. Structures can show the parent of a compound that is named as a salt.

For the assay, the target named is T1, human recombinant 6His-Nterm SHP2 full-length (Thr2-Arg593) (Homo sapiens, UniProt Q06124).
T1 construct: 6His-Nterm SHP2 full-length (Thr2-Arg593, R&D system); 6His (N); purchased R&D system
T1 sequence (Q06124 2-593): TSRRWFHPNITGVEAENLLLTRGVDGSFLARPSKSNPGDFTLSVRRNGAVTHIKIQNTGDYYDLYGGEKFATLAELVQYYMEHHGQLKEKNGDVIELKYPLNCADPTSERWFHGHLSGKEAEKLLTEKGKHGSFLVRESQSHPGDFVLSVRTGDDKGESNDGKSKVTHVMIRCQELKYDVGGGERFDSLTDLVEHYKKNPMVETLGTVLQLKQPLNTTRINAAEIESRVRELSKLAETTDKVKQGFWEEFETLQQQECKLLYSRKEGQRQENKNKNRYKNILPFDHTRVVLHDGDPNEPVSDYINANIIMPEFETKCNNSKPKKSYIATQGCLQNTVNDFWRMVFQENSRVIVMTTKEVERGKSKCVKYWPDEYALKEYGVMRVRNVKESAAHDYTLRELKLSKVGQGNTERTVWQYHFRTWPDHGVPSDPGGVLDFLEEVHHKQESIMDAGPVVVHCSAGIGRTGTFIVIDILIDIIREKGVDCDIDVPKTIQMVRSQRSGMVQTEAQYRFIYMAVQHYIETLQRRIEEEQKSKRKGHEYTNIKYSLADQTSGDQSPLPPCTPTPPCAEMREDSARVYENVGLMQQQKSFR
Put plainly: SHP2 Phosphatase Assay (DiFMUP fluorescence). It is filed as biochemical. The note with it: SHP2 0.2 nM pre-incubated with 100 nM bi-phosphorylated activating peptide; compound 1000-0.05 nM, 30 min pre-incubation; DiFMUP 20 µM, 45 min, room temperature; 10-concentration dose-response. In short, it runs like this:
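SHP2 (0.2 nM) preactivated ≥10 min with 100 nM bis-phosphorylated peptide, then 30 min with compound (10 concentrations, 1000–0.05 nM) at room temperature, pH 7.2 HEPES buffer with DTT. DiFMUP (20 µM, added solution) reacted 45 min, pervanadate-stopped; fluorescence 350/450 nm. IC50 by 4-parameter logistic fit.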
What is called pIC50 is the negative decadic logarithm of the IC50, by convention in mol/L. For the molecule `Cc1nc(N2CCC3(CC2)Cc2ncccc2[C@H]3N)c2ccnn2c1-c1ccc(CC#N)cc1` [Compound 189, 2-[4-[6-methyl-4-[(5S)-5-aminospiro[5,7-dihydrocyclopenta[b]pyridine-6,4'-piperidine]-1'-yl]pyrazolo[1,5-a]pyrazin-7-yl]phenyl]acetonitrile], the pIC50 was 8.40.

Turning to `Cc1nc(N2CCC3(CC2)Cc2ncc(C(F)F)cc2[C@H]3N)c2ccnn2c1-c1cnn(C)c1C` [Compound 55, (5S)-3-(difluoromethyl)-1'-[7-(1,5-dimethylpyrazol-4-yl)-6-methyl-pyrazolo[1,5-a]pyrazin-4-yl]spiro [5,7-dihydrocyclopenta[b]pyridine-6,4'-piperidine]-5-amine], the pIC50 is 7.52. To `Cc1cc2c(cn1)[C@@H](N)C1(CCN(c3nc(C)c(-c4ccccc4F)n4nccc34)CC1)C2` [Compound 60, (7S)-1'-[7-(2-fluorophenyl)-6-methyl-pyrazolo[1,5-a]pyrazin-4-yl]-3-methyl-spiro[5,7-dihydrocyclopenta[c]pyridine-6,4'-piperidine]-7-amine] belongs 8.15; to `Cc1nc(N2CCC3(CC2)Cc2cccnc2[C@H]3N)c2ccnn2c1-c1cccc(F)c1Cl` [Compound 12, (7S)-1'-[7-(2-chloro-3-fluorophenyl)-6-methyl-pyrazolo[1,5-a]pyrazin-4-yl]spiro[5,7-dihydrocyclopenta[b]pyridine-6,4'-piperidine]-7-amine], 7.85. To `Cc1nccc(-c2c(C)nc(N3CCC4(CC3)Cc3nc(O)sc3[C@H]4N)c3ccnn23)c1Cl` [Compound 218, (6S)-6-amino-1'-[7-(3-chloro-2-methyl-4-pyridyl)-6-methyl-pyrazolo[1,5-a]pyrazin-4-yl]spiro[4,6-dihydrocyclopenta[d]thiazole-5,4'-piperidine]-2-ol hydrochloride] belongs 6.75. To `Cc1nc(N2CCC3(CC2)Cc2ccncc2[C@H]3N)c2ccnn2c1-c1ccccc1` [Compound 138, (7S)-1'-(6-methyl-7-phenyl-pyrazolo[1,5-a]pyrazin-4-yl)spiro[5,7-dihydrocyclopenta[c]pyridine-6,4'-piperidine]-7-amine] belongs 8.40; to `COc1cccc(-c2c(C)nc(N3CCC4(CC3)Cc3ncccc3[C@H]4N)c3ccnn23)c1` [Compound 32, (5S)-1'-[7-(3-methoxyphenyl)-6-methyl-pyrazolo[1,5-a]pyrazin-4-yl]spiro[5,7-dihydrocyclopenta[b]pyridine-6,4'-piperidine]-5-amine], 8.22; to `Cc1nc(N2CCC3(CC2)Cc2ncccc2[C@H]3N)c2ccnn2c1-c1ccc2c(c1F)OCCO2` [Compound 34, (5S)-1'-[7-(5-fluoro-2,3-dihydro-1,4-benzodioxin-6-yl)-6-methyl-pyrazolo[1,5-a]pyrazin-4-yl]spiro[5,7-dihydrocyclopenta[b]pyridine-6,4'-piperidine]-5-amine], 8.52. Take `Cc1nc(N2CCC3(CC2)Cc2ncccc2[C@H]3N)c2c(CO)cnn2c1-c1ccccc1` [Compound 145, [4-[(5S)-5-aminospiro[5,7-dihydrocyclopenta[b]pyridine-6,4'-piperidine]-1'-yl]-6-methyl-7-phenyl-pyrazolo[1,5-a]pyrazin-3-yl]methanol]: the pIC50 is below 6.00. To `Cc1nc(N2CCC3(CC2)Cc2ncccc2[C@H]3N)c2c(C(F)F)cnn2c1-c1ccccc1` [Compound 146, (5S)-1'-[3-(difluoromethyl)-6-methyl-7-phenyl-pyrazolo [1,5-a]pyrazin-4-yl]spiro[5,7-dihydrocyclopenta[b]pyridine-6,4'-piperidine]-5-amine] belongs below 6.00. As for `Cc1nc(N2CCC3(CC2)Cc2ncccc2[C@H]3N)c2ccnn2c1-c1ccnnc1` [Compound 159, (5S)-1'-(6-methyl-7-pyridazin-4-yl-pyrazolo[1,5-a]pyrazin-4-yl)spiro[5,7-dihydrocyclopenta[b]pyridine-6,4'-piperidine]-5-amine hydrochloride], the pIC50 was 6.19. Then `Cc1nc(N2CCC3(CC2)Cc2ncccc2[C@H]3N)c2ccnn2c1C1=CCOCC1` [Compound 196, (5S)-1'-[7-(3,6-dihydro-2H-pyran-4-yl)-6-methyl-pyrazolo[1,5-a]pyrazin-4-yl]spiro[5,7-dihydrocyclopenta[b]pyridine-6,4'-piperidine]-5-amine], with 7.08.

As for `Cc1cc2c(cn1)CC1(CCN(c3nc(C)c(-c4ccccc4)n4nccc34)CC1)[C@@H]2N` [Compound 114, (5S)-3-methyl-1'-(6-methyl-7-phenyl-pyrazolo[1,5-a]pyrazin-4-yl)spiro[5,7-dihydrocyclopenta[c]pyridine-6,4'-piperidine]-5-amine hydrochloride], the pIC50 was 8.00. To `Cc1nc(N2CCC3(CC2)Cc2nccnc2[C@H]3N)c2ccnn2c1-c1ccccc1F` [Compound 63, (5S)-1'-[7-(2-fluorophenyl)-6-methyl-pyrazolo[1,5-a]pyrazin-4-yl]spiro[5,7-dihydrocyclopenta[b]pyrazine-6,4'-piperidine]-5-amine] belongs 6.95; to `Cc1cccc(-c2c(C)nc(N3CCC4(CC3)Cc3ncccc3[C@H]4N)c3ccnn23)c1C` [Compound 164, (5S)-1'-[7-(2,3-dimethylphenyl)-6-methyl-pyrazolo[1,5-a]pyrazin-4-yl]spiro[5,7-dihydrocyclopenta[b]pyridine-6,4'-piperidine]-5-amine], 8.15; to `COc1cc(-c2c(C)nc(N3CCC4(CC3)Cc3ncccc3[C@H]4N)c3ccnn23)c(F)cn1` [Compound 76, (5S)-1'-[7-(5-fluoro-2-methoxy-4-pyridyl)-6-methyl-pyrazolo [1,5-a]pyrazin-4-yl]spiro[5,7-dihydrocyclopenta[b]pyridine-6,4'-piperidine] -5-amine hydrochloride], 7.14. On to `[2H]c1c([2H])c([2H])c(-c2c(C)nc(N3CCC4(CC3)Cc3ncccc3[C@H]4N)c3ccnn23)c([2H])c1[2H]` [Compound 57, (5S)-1'-[6-methyl-7-(2,3,4,5,6-pentadeuteriophenyl)pyrazolo [1,5-a]pyrazin-4-yl]spiro[5,7-dihydrocyclopenta[b]pyridine-6,4'-piperidine]-5-amine], for which the pIC50 was 8.00.

Regarding `Cc1nc(N2CCC3(CC2)Cc2ncccc2[C@H]3N)c2ccnn2c1-c1ccnc(C(C)C)c1Cl` [Compound 7, (5S)-1'-[7-(3-chloro-2-isopropyl-4-pyridyl)-6-methyl-pyrazolo[1,5-a]pyrazin-4-yl]spiro[5,7-dihydrocyclopenta[b]pyridine-6,4'-piperidine] -5-amine hydrochloride], the pIC50 was 7.89. To `Cc1nc2c(s1)[C@@H](N)C1(CCN(c3nc(C)c(-c4ccccc4F)n4nccc34)CC1)C2` [Compound 83, (6S)-1'-[7-(2-fluorophenyl)-6-methyl-pyrazolo[1,5-a]pyrazin-4-yl]-2-methyl-spiro[4,6-dihydrocyclopenta[d]thiazole-5,4'-piperidine]-6-amine hydrochloride] belongs 8.00; to `Cc1nccc(-c2c(C)nc(N3CCC4(CC3)Cc3ccncc3[C@H]4N)c3ccnn23)c1Cl` [Compound 139, (7S)-1'-[7-(3-chloro-2-methyl-4-pyridyl)-6-methyl-pyrazolo[1,5-a]pyrazin-4-yl]spiro[5,7-dihydrocyclopenta[c]pyridine-6,4'-piperidine]-7-amine], 8.40; to `COc1cnc2c(c1)[C@@H](N)C1(CCN(c3nc(C)c(-c4ccnc(C)c4Cl)n4nccc34)CC1)C2` [Compound 23, (5S)-1'-[7-(3-chloro-2-methyl-4-pyridyl)-6-methyl-pyrazolo[1,5-a]pyrazin-4-yl]-3-methoxy-spiro[5,7-dihydrocyclopenta[b]pyridine-6,4'-piperidine]-5-amine], 8.00. In the case of `COc1ccc(F)c(-c2c(C)nc(N3CCC4(CC3)Cc3ncccc3[C@H]4N)c3ccnn23)c1` [Compound 31, (5S)-1'-[7-(2-fluoro-5-methoxy-phenyl)-6-methyl-pyrazolo[1,5-a]pyrazin-4-yl]spiro[5,7-dihydrocyclopenta[b]pyridine-6,4'-piperidine]-5-amine], the pIC50 is 7.89. Then `Cc1nccc(-c2c(C)nc(N3CCC4(CC3)Cc3cc(F)ccc3[C@H]4N)c3ccnn23)c1Cl` [Compound 217, (1S)-1'-[7-(3-Chloro-2-methyl-4-pyridyl)-6-methyl-pyrazolo[1,5-a]pyrazin-4-yl]-5-fluoro-spiro[indane-2,4'-piperidine]-1-amine formate], with 8.10; and `Cc1nc(N2CCC3(CC2)Cc2ncccc2[C@H]3N)c2ccnn2c1-c1ccsc1` [Compound 194, (5S)-1'-[6-methyl-7-(3-thienyl)pyrazolo[1,5-a]pyrazin-4-yl]spiro[5,7-dihydrocyclopenta[b]pyridine-6,4'-piperidine]-5-amine], with 8.30.
